In patent US9434714B2, “Pyrimidine imidazole amines as modulators of kinase activity” (Merck Patent GmbH, priority 2014, dated 2016):

Experiments:
P70S6K (T412E mutant) = molecular target: T1, P70S6K (T412E mutant) (Homo sapiens, UniProt P23443, T412E); assay: P70S6K enzyme assay; format: biochemical; conditions: 24 μM ATP, 90 min at 25° C., mobility shift (Caliper)
T1 construct: purchased Millipore
Experimental: P70S6K inhibitor compounds were diluted and plated in 96 well plates. A reaction mixture including the following components was then added to the compound plate to initiate the enzyme reaction; P70S6K (3 nM, T412E mutant, Millipore) was mixed with 24 μM ATP in an assay buffer containing 100 mM Hepes (pH 7.5), 5 mM MgCl2, 1 mM DTT, 0.015% Brij and 1 μM of the substrate peptide FITC-AHA-AKRRRLSSLRA-OH (derived from the S6 ribosomal protein sequence, FITC=fluorescein isothiocyanate, AHA=6-aminohexanoic acid). The reaction was incubated for 90 min at 25° C., before the addition of 10 mM EDTA to stop the reaction. The proportion of substrate and product (phosphorylated) peptide was analysed on a Caliper Life Sciences Lab Chip 3000, using a pressure of −1.4 psi, and upstream and downstream voltages of −3000 and −700 respectively. Product peaks were resolved before substrate peaks on the resulting chromatograms.

His-AKT (Full Length) = molecular target: T2, His-AKT (Full Length) (Homo sapiens, UniProt P31749); assay: AKT enzyme assay; format: biochemical; conditions: 160 uM ATP, 90 min at 25 C, off-chip mobility shift (Caliper)
T2 construct: His-AKT (Full Length); His; purchased Invitrogen P2999
Experimental: A TTP Mosquito liquid handling instrument was used to place 125 nl of the appropriate concentration of inhibitor in 100% DMSO (for a dose response curve calculation) into each well of a 384-well plate. To this reaction components were added to a final volume of 12.5 μl: • 0.1 ng/μ1 His-AKT (Full Length), (Invitrogen, Part # P2999, Lot #641228C). • 160 uM ATP (Fluka, 02055) • 1 mM DTT (Sigma, D0632) • 1 mM MgCl2 (Sigma, M1028) • 1 μM substrate peptide (sequence FITC-AHA-GRPRTSSFAEG-NH2), synthesized by Tufts Peptide Synthesis service. • 100 mM HEPES pH 7.5 (Calbiochem, 391338) • 0.015% Brij-35 (Sigma, B4184)
The reaction was incubated for 90 min at 25 C, and then stopped by the addition of 70 μl of Stop buffer (100 mM HEPES pH 7.5, 0.015% Brij-35, 10 mM EDTA (Sigma, E7889)).
The plate was read on a Caliper LC 3000 in an Off-Chip mobility shift assay format, using the following parameters for a 12-sipper chip: screening pressure—2.3 psi, upstream voltage—500, and downstream voltage—3000. These conditions cause unphosphorylated substrate and phosphorylated product peptide to resolve as separate peaks allowing direct measurement of percentage of conversion of substrate to product. The percent conversion was plotted against concentration of inhibitor to produce a sigmoidal dose response curve, from which an IC50 was calculated.

T1 sequence (P23443 whole entry T412E): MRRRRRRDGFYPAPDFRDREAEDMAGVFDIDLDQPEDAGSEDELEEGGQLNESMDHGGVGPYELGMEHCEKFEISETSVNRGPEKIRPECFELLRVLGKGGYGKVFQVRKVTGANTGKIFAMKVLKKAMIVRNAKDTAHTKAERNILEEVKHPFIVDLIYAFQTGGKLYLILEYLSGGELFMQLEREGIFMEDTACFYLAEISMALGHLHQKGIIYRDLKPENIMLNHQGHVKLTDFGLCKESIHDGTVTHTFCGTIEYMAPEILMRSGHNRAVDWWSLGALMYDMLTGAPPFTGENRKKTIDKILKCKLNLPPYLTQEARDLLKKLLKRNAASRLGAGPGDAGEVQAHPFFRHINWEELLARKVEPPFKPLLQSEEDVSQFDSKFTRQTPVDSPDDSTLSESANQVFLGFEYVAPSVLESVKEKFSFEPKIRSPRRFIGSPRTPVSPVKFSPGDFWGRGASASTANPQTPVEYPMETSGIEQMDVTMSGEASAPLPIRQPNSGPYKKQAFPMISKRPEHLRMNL
T2 sequence (P31749 whole entry): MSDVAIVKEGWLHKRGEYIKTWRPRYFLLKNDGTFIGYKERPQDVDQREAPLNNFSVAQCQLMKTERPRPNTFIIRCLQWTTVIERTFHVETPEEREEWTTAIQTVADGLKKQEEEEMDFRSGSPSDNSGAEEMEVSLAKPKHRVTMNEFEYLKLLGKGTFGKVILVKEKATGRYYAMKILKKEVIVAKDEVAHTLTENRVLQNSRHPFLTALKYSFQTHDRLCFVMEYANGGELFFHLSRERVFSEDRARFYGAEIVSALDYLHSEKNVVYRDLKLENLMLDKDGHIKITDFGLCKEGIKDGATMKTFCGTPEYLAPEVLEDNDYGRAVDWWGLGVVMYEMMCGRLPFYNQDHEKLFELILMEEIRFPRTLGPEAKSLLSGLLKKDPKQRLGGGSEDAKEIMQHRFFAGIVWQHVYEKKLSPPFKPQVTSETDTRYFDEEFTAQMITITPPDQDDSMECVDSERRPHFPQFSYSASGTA

Compound	IC50 (P70S6K (T412E mutant))	IC50 (His-AKT (Full Length))
Cc1cc(-c2cn(CCN3CCC3)c(C3CCN(c4ncnc(N)c4Cl)CC3)n2)ccc1F [Compound 2, 6-{4-[1-(2-Azetidin-1-yl-ethyl)-4-(4-fluoro-3-methyl-phenyl)-1H-imidazol-2-yl]-piperidin-1-yl}-5-chloro-pyrimidin-4-ylamine]	< 3 nM	< 3 nM
CC(C)c1cc(-c2cn(CCN3CCC3)c(C3CCN(c4ncnc(N)c4C4CCC4)CC3)n2)ccn1 [Compound 11, 6-{4-[1-(2-Azetidin-1-yl-ethyl)-4-(2-isopropyl-pyridin-4-yl)-1H-imidazol-2-yl]-piperidin-1-yl}-5-cyclobutyl-pyrimidin-4-ylamine]	3 to 15 nM	< 3 nM
CCc1c(N)ncnc1N1CCC(c2nc(-c3ccnc(C(F)(F)F)c3)cn2CCN(C)C)CC1 [Compound 27]	3 to 15 nM	> 15 nM
CC(C)c1cc(-c2cn(CCN3CCC3)c(C3CCN(c4ncnc(N)c4C4CC4)CC3)n2)ccn1 [Compound 17, 6-{4-[1-(2-Azetidin-1-yl-ethyl)-4-(2-isopropyl-pyridin-4-yl)-1H-imidazol-2-yl]-piperidin-1-yl}-5-cyclopropyl-pyrimidin-4-ylamine]	3 to 15 nM	3 to 15 nM
